Results published in patent publication US5681800A, “Biodegradable branched synthetic ester base stocks and lubricants formed therefrom” (priority 1995, dated 1997).

How the values were obtained:
Pour Point (ASTM D-97) = assay type: physicochemical
Procedure: (§1) The properties listed in Tables 1 and 2 were determined as follows. Pour Point was determined using ASTM # D-97. Brookfield Viscosity at -25° C. was determined using ASTM # D-2983. Kinematic viscosity (@ 40 and 100° C.) was determined using ASTM # D-445. Viscosity index (VI) was determined using ASTM # D-2270. Biodegradation was determined using the Modified Sturm test (OECD Test No. 301B). Solubility with dispersant was determined by blending the desired ratios and looking for haze, cloudiness, two-phases, etc. Engine wear was determined using the NMMA Yamaha CE50S Lubricity test. Oxidation induction time was determined using a high pressure differential scanning calorimeter (HPDSC) having isothermal/isobaric conditions of 220° C. and 500 psi (3.445 MPa) air, respectively. Aquatic toxicity was determined using the Dispersion Aquatic Toxicity test. The acid number was determined using ASTM # D-664. The hydroxyl number of the respective samples was determined by infrared spectroscopy.

[1] = Brookfield Viscosity at -25° C. (ASTM D-2983); assay type: physicochemical
Procedure: as §1

[2] = Kinematic viscosity (ASTM D-445); assay type: physicochemical
Procedure: as §1

[3] = background; cited from earlier work
[4] = Oxidation induction time by HPDSC; assay type: physicochemical; conditions: 220° C., 500 psi air
Acid number (ASTM D-664) = assay type: physicochemical
Procedure: as §1

[5] = Viscosity index (ASTM D-2270); assay type: physicochemical
Procedure: as §1

| Vis @ -25° C. [1] | Compound | Pour Point (Pour Point (ASTM D-97)) | Vis. @ 40° C. [2] [cSt] | Vis. @ 100° C. [2] [cSt] | viscosity at 40° C. [3] | -25° C. Viscosity ([1]; Tables 2 and 4) | Oxidation Induction Time [4] [min] | Acid Number (Acid number (ASTM D-664)) [mgKOH/g] | Viscosity Index [5] |
| --- | --- | --- | --- | --- | --- | --- | --- | --- | --- |
| solid | CCCCCCCCCCCOC(=O)CCCCC(=O)OCCCCCCCCCCC [Di-undecyladipate] | +21 °C | 13.92 | 2.80 |  |  |  |  |  |
|  | CCCCCCCCCC(=O)OCC(COC(=O)CCCCCCCCC)(COC(=O)CCCCCCCCC)COC(=O)CCCCCCCCC [ester of pentaerythritol and n-C10 acid] |  |  |  | about 38.6 cSt |  |  |  |  |
|  | triester of trimethylolpropane and isostearic acid [TMP/iC18] | -20 °C | 78.34 | 11.94 |  | 358,000 cps | 4.29 | 1.9 | 147 |
